We go through 4 compounds from patent US6645914B1, “Surfactant-ammonium sulfate adjuvant composition for enhancing efficacy of herbicides” (NDSU-Research Foundation, priority 2002, dated 2003).

SMILES strings stand for the structures. Structures can show the parent of a compound that is named as a salt.

What all share (type): in vivo
Experiment [1] deals with Kochia (Kochia scoparia L.). As to the kind of experiment: Greenhouse kochia fresh weight reduction from 2,4-D, dicamba, bentazon as influenced by adjuvants. The following applies: no adjuvant. How it is done:
Kochia (Kochia scoparia L.) was grown in plastic cones containing a commercial peat-based greenhouse mixture with 5 plants per cone. All growing conditions and herbicide application procedures were similar as explained in Example 2. Herbicides were applied to kochia at the 4 to 6-leaf stage. Herbicide formulation and rates of herbicides and adjuvants are specified in Table 7. Plants were evaluated for herbicide injury and fresh weight reduction 14 days after herbicide application. Data presented are the means of two experiments with four replicates per experiment.
The adjuvants, Activator 90. RTM and Composition 1, were added into soft and hard water carriers (volume per volume concentrations shown in TABLE 7) with 2,4-D at 220 g ae/ha, dicamba at 75 g ae/ha, or bentazon at 200 g ai/ha to prepare the final aqueous spray mixture applied at 80 L/ha on 4 to 6-leaf kochia. TABLE 7 includes the results of assessment made 2 weeks after treatment.

The test system of experiment [2] is velvetleaf (Abutilion theophrasti Medicus). In words: Greenhouse velvetleaf fresh weight reduction from glyphosate as influenced by adjuvants. Particulars: glyphosate (Roundup Ultra Max.RTM) 150 g ae/ha; hard water (Devils Lake, ND, No. 2 - well water); adjuvant 1%. The method, then: Wheat (Triticum aestivum L.), velvetleaf (Abutilion theophrasti Medicus), Roundup Ready.RTM soybean (Glycine max (L.) Merr.), and Roundup Ready.RTM corn (Zea mays L.) were grown in plastic cones containing a commercial peat-based greenhouse mixture. Plants were thinned 1 wk after emergence to seven wheat, three velvetlaf, or one corn or soybean per cone and were watered and fertilized as needed for healthy growth. Natural daylight was supplemented for 16 h photoperiod with metal halide lamps with the light intensity of 450 μE/m^2/s. The greenhouse was maintained at 20° C. at night and 25 ±5° C. during the day. Glyphosate with adjuvants was applied to three-leaf wheat and corn, first-pair leaf velvetleaf, and to first-trifoliolate-leaf soybean using a cabinet laboratory sprayer that delivered 80 L/ha through a 8001 flat fan nozzle at 280 kPa generated by compressed air. Distilled water, Fargo tap water (soft), and two well waters from the Devils Lake, ND, area (hard and high sodium content, respectively) were used as spray carriers. Ion concentrations in these waters are described in TABLE 1. Formulation type and rates of glyphosate and adjuvants are specified in each table. In all greenhouse studies, plants were evaluated for herbicide injury and adjuvant efficacy 14 days after herbicide application. Data presented are the means of two experiments with four replicates per experiment. […]

The test system of experiment [3] is Wheat (Triticum aestivum L.). In words: Greenhouse wheat fresh weight reduction from glyphosate as influenced by adjuvants. The following applies: adjuvant 1%. How it is done: Wheat (Triticum aestivum L.), velvetleaf (Abutilion theophrasti Medicus), Roundup Ready.RTM soybean (Glycine max (L.) Merr.), and Roundup Ready.RTM corn (Zea mays L.) were grown in plastic cones containing a commercial peat-based greenhouse mixture. Plants were thinned 1 wk after emergence to seven wheat, three velvetlaf, or one corn or soybean per cone and were watered and fertilized as needed for healthy growth. Natural daylight was supplemented for 16 h photoperiod with metal halide lamps with the light intensity of 450 μE/m^2/s. The greenhouse was maintained at 20° C. at night and 25 ±5° C. during the day. Glyphosate with adjuvants was applied to three-leaf wheat and corn, first-pair leaf velvetleaf, and to first-trifoliolate-leaf soybean using a cabinet laboratory sprayer that delivered 80 L/ha through a 8001 flat fan nozzle at 280 kPa generated by compressed air. Distilled water, Fargo tap water (soft), and two well waters from the Devils Lake, ND, area (hard and high sodium content, respectively) were used as spray carriers. Ion concentrations in these waters are described in TABLE 1. Formulation type and rates of glyphosate and adjuvants are specified in each table. In all greenhouse studies, plants were evaluated for herbicide injury and adjuvant efficacy 14 days after herbicide application. Data presented are the means of two experiments with four replicates per experiment.
The adjuvants, ammonium sulfate, Activator 90. RTM, and mixtures thereof, Surfate.RTM, and Composition 1 were added into water [weight (for solids) or volume (for liquids) per volume concentrations shown in TABLE 2] with glyphosate at 100 g ae/ha to prepare the final aqueous spray mixture applied at 80 L/ha on 2 to 3 leaf wheat. Calcium chloride was added to distilled water to get 0, 125, 250, and 500 mg/L calcium cations. TABLE 2 includes the results of assessment made 2 weeks after treatment.
The adjuvants, Activator 90. RTM, MON 0818, Atplus GTM7, Atplus GTM10 and their mixtures with ammonium sulfate, Surfate.RTM, and Composition 1 were added into three water carriers [weight (for solids) or volume (for liquids) per volume concentrations shown in TABLE 3] with glyphosate (100 g ae/ha) to prepare the final aqueous spray mixture applied at 80 L/ha on 2 to 3 leaf wheat. TABLE 3 includes the results of assessment made 2 weeks after treatment.
The adjuvants, ammonium sulfate, Activator 90.RTM, and mixtures thereof, Surfate.RTM, and Composition 1 were added into two water carriers (weight [for solids] or volume [for liquids] per volume concentrations shown in TABLE 4) with three glyphosate formulations, all at 125 g ae/ha, to.prepare the final aqueous spray mixture applied at 80 L/ha on 2 to 3 leaf wheat. TABLE 4 includes the results of assessment made 2 weeks after treatment.
Various iminodipropionate, betaine, imidazoline, and amine oxide amphoteric surfactants applied with ammonium sulfate and adjuvant formulations containing surfactant and ammonium sulfate, including Composition 1 of present invention, were added into hard water carrier [weight (for solids) or volume (for liquids) per volume concentrations shown in TABLE 5] with glyphosate at 125 g ae/ha to prepare the final aqueous spray mixture applied at 80 L/ha on 2 to 3 leaf wheat. TABLE 5 includes the results of assessment made 2 weeks after treatment.

Regarding `O=C(O)COc1ccc(Cl)cc1Cl` [2,4-D-dimethylamine salt, (2,4-dichlorophenoxy)acetic acid], the “percent fresh weigh reduction” value is given as 10% in experiment [1] (2,4-D-dimethylamine salt 220 g ae/ha, water Devils Lake No. 1 (well)) and 20% in experiment [1] (2,4-D-dimethylamine salt 220 g ae/ha, water Fargo, ND (tap)).

Take `N.N.O=S(=O)(O)O` [Ammonium sulfate]: the “Fresh weight reduction %” value in experiment [2] was 54%. The “% fresh weight reduction” value in experiment [3] (Roundup Custom.RTM 125 g ae/ha, water Devils Lake No. 1 (well)) stood at 23%; in experiment [3] (Roundup Custom.RTM 125 g ae/ha, water Fargo (tap)), 68%; in experiment [3] (Roundup Ultra Max.RTM 125 g ae/ha, water Devils Lake No. 1 (well)) it was 43%; in experiment [3] (Roundup Ultra Max.RTM 125 g ae/ha, water Fargo (tap)), 54%; in experiment [3] (Touchdown.RTM 125 g ae/ha, water Devils Lake No. 1 (well)), 24%; in experiment [3] (Touchdown.RTM 125 g ae/ha, water Fargo (tap)) it was 71%. The “% fresh weight reduction” value in experiment [3] (glyphosate 100 g ae/ha (Roundup Ultra Max.RTM), Ca2+ 0 mg/L, 2 weeks after treatment) is listed as 65%; in experiment [3] (glyphosate 100 g ae/ha (Roundup Ultra Max.RTM), Ca2+ 125 mg/L, 2 weeks after treatment), 72%; in experiment [3] (glyphosate 100 g ae/ha (Roundup Ultra Max.RTM), Ca2+ 250 mg/L, 2 weeks after treatment), 73%; in experiment [3] (glyphosate 100 g ae/ha (Roundup Ultra Max.RTM), Ca2+ 500 mg/L, 2 weeks after treatment), 64%.

With `CC(C)N1C(=O)c2ccccc2NS1(=O)=O` [bentazon-sodium salt, 3-(1-methylethyl)-(1H)-2,1,3-benzothiadiazin-4(3H)-one 2,2-dioxide], the “percent fresh weigh reduction” value came to 5% in experiment [1] (bentazon-sodium salt 200 g ai/ha, water Devils Lake No. 1 (well)) and 20% in experiment [1] (bentazon-sodium salt 200 g ai/ha, water Fargo, ND (tap)).

As for `COc1c(Cl)ccc(Cl)c1C(=O)O` [dicamba-sodium salt, 3,6-dichloro-2-methoxybenzoic acid], the “percent fresh weigh reduction” value was 9% in experiment [1] (dicamba-sodium salt 75 g ae/ha, water Devils Lake No. 1 (well)) and 12% in experiment [1] (dicamba-sodium salt 75 g ae/ha, water Fargo, ND (tap)).
